# Test results reported in PubChem BioAssay (NCI).
# Where “and” joins values, the source holds several entries; their conditions need not be identical. Identical values can stand only once.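 Step 1: Grow cells in 96-well plates. Step 2: Expose to compound for 48 hours at 5 concentrations. Step 3: Interpolate endpoints linearly; if unreached, use highest concentration. GI50 is the concentration that inhibits growth by half. TGI denotes the concentration required for complete inhibition of growth.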
# Experiments:
# Test in all cases: NCI anticancer screen, dose series, 48 h
# M19-MEL melanoma = tested on: M19-MEL melanoma
# DMS 273 small cell lung = tested on: DMS 273 small cell lung
# HS 578T breast = tested on: HS 578T breast
# DMS 114 small cell lung = tested on: DMS 114 small cell lung
# HOP-18 NSCLC = tested on: HOP-18 NSCLC
# SNB-78 CNS = tested on: SNB-78 CNS
# DU-145 prostate = tested on: DU-145 prostate
# RXF-631 renal = tested on: RXF-631 renal
# MDA-MB-231 breast = tested on: MDA-MB-231 breast
# SK-MEL-28 melanoma = tested on: SK-MEL-28 melanoma
# T-47D breast = tested on: T-47D breast
# XF 498 CNS = tested on: XF 498 CNS
# PC-3 prostate = tested on: PC-3 prostate
# DLD-1 colon = tested on: DLD-1 colon
# LXFL 529 NSCLC = tested on: LXFL 529 NSCLC
# SK-OV-3 ovarian = tested on: SK-OV-3 ovarian
# KM20L2 colon = tested on: KM20L2 colon
# SW-620 colon = tested on: SW-620 colon
# MDA-N = tested on: MDA-N
# BT-549 breast = tested on: BT-549 breast
# TK-10 renal = tested on: TK-10 renal
# HL-60(TB) leukemia = tested on: HL-60(TB) leukemia
# NCI-H460 lung = tested on: NCI-H460 lung
# 786-0 renal = tested on: 786-0 renal
# HOP-92 NSCLC = tested on: HOP-92 NSCLC
# SK-MEL-5 melanoma = tested on: SK-MEL-5 melanoma
# MOLT-4 leukemia = tested on: MOLT-4 leukemia
# MALME-3M melanoma = tested on: MALME-3M melanoma
# EKVX NSCLC = tested on: EKVX NSCLC
# SN12C renal = tested on: SN12C renal
# U251 CNS = tested on: U251 CNS
# OVCAR-5 ovarian = tested on: OVCAR-5 ovarian
# SF-268 CNS = tested on: SF-268 CNS
# OVCAR-8 ovarian = tested on: OVCAR-8 ovarian
# K-562 leukemia = tested on: K-562 leukemia
# HCC-2998 colon = tested on: HCC-2998 colon
# SK-MEL-2 melanoma = tested on: SK-MEL-2 melanoma
# NCI-H23 lung = tested on: NCI-H23 lung
# A498 renal = tested on: A498 renal
# SNB-75 CNS = tested on: SNB-75 CNS
# LOX IMVI melanoma = tested on: LOX IMVI melanoma
# CCRF-CEM leukemia = tested on: CCRF-CEM leukemia
# OVCAR-4 ovarian = tested on: OVCAR-4 ovarian
# SNB-19 CNS = tested on: SNB-19 CNS
# NCI-H522 lung = tested on: NCI-H522 lung
# NCI-H226 lung = tested on: NCI-H226 lung
# HCT-15 colon = tested on: HCT-15 colon
# IGROV1 ovarian = tested on: IGROV1 ovarian
# COLO 205 colon = tested on: COLO 205 colon
# UO-31 renal = tested on: UO-31 renal
# ACHN renal = tested on: ACHN renal
# RPMI-8226 leukemia = tested on: RPMI-8226 leukemia
# M14 melanoma = tested on: M14 melanoma
# A549 NSCLC = tested on: A549 NSCLC
# HCT-116 colon = tested on: HCT-116 colon
# UACC-62 melanoma = tested on: UACC-62 melanoma
# SF-539 CNS = tested on: SF-539 CNS
# HOP-62 NSCLC = tested on: HOP-62 NSCLC
# RXF 393 renal = tested on: RXF 393 renal
# OVCAR-3 ovarian = tested on: OVCAR-3 ovarian
# KM12 colon = tested on: KM12 colon
# UACC-257 melanoma = tested on: UACC-257 melanoma
# SF-295 CNS = tested on: SF-295 CNS
# CAKI-1 renal = tested on: CAKI-1 renal
# HT29 colon = tested on: HT29 colon
smiles,measurement,setting,value
Cc1cc2c(C(C)C)c(O)c(O)c(C=O)c2c(O)c1-c1c(C)cc2c(C(C)C)c(O)c(O)c(C=O)c2c1O,TGI,M19-MEL melanoma,11.4 µM
same,TGI,DMS 273 small cell lung,18.3 µM
same,TGI,HS 578T breast,13.5 µM and 36 µM and 27.8 µM
same,TGI,DMS 114 small cell lung,9.21 µM
same,TGI,HOP-18 NSCLC,11.3 µM
same,TGI,SNB-78 CNS,25.8 µM
same,TGI,DU-145 prostate,4.04 µM and 36.8 µM and 29.4 µM
same,TGI,RXF-631 renal,25.3 µM
same,GI50,MDA-MB-231 breast,14.8 µM and 6.06 µM
same,TGI,MDA-MB-231 breast,34.5 µM and 16.6 µM
same,GI50,SK-MEL-28 melanoma,2.39 µM and 18 µM and 9.01 µM
same,TGI,T-47D breast,7.76 µM and 50.5 µM and 26.4 µM
same,TGI,XF 498 CNS,5.55 µM
same,TGI,PC-3 prostate,7.11 µM and 33.8 µM and 24.5 µM
same,TGI,DLD-1 colon,15.5 µM
same,TGI,LXFL 529 NSCLC,8.26 µM
same,TGI,SK-OV-3 ovarian,8.26 µM and 50.9 µM and 31 µM
same,TGI,KM20L2 colon,11.4 µM
same,TGI,SW-620 colon,30.8 µM [middle of 4 runs]
same,TGI,MDA-N,> 100 µM
same,TGI,BT-549 breast,7.42 µM and 41.7 µM and 29.8 µM
Cn1c(=O)c(C(=O)NC(=O)OCc2ccccc2)cn(CCSCCOC(=O)NCCCCCCNC(=O)OCCSCCn2cc(C(=O)NC(=O)OCc3ccccc3)c(=O)n(C)c2=O)c1=O,TGI,M19-MEL melanoma,> 100 µM
same,TGI,DMS 273 small cell lung,> 100 µM
same,TGI,TK-10 renal,> 100 µM
same,TGI,HL-60(TB) leukemia,> 100 µM
same,TGI,NCI-H460 lung,> 100 µM
same,TGI,786-0 renal,> 100 µM
same,TGI,HOP-92 NSCLC,87.5 µM
same,TGI,SK-MEL-5 melanoma,> 100 µM
same,TGI,MOLT-4 leukemia,> 100 µM
same,TGI,MALME-3M melanoma,> 100 µM
same,TGI,DMS 114 small cell lung,> 100 µM
same,TGI,EKVX NSCLC,> 100 µM
same,TGI,SN12C renal,> 100 µM
same,TGI,U251 CNS,> 100 µM
same,TGI,OVCAR-5 ovarian,> 100 µM
same,TGI,SF-268 CNS,> 100 µM
same,TGI,SNB-78 CNS,> 100 µM
same,TGI,RXF-631 renal,> 100 µM
same,TGI,OVCAR-8 ovarian,> 100 µM
same,TGI,K-562 leukemia,> 100 µM
same,TGI,HCC-2998 colon,> 100 µM
same,TGI,SK-MEL-28 melanoma,> 100 µM
same,TGI,SK-MEL-2 melanoma,> 100 µM
same,TGI,NCI-H23 lung,> 100 µM
same,TGI,A498 renal,> 100 µM
same,TGI,XF 498 CNS,57.6 µM
same,TGI,DLD-1 colon,> 100 µM
same,TGI,SNB-75 CNS,48.9 µM
same,TGI,LOX IMVI melanoma,> 100 µM
same,TGI,LXFL 529 NSCLC,> 100 µM
same,TGI,CCRF-CEM leukemia,> 100 µM
same,TGI,OVCAR-4 ovarian,> 100 µM
same,TGI,SNB-19 CNS,> 100 µM
same,TGI,NCI-H522 lung,> 100 µM
same,TGI,NCI-H226 lung,> 100 µM
same,TGI,HCT-15 colon,> 100 µM
same,TGI,IGROV1 ovarian,> 100 µM
same,TGI,COLO 205 colon,> 100 µM
same,TGI,KM20L2 colon,> 100 µM
same,TGI,UO-31 renal,> 100 µM
same,TGI,ACHN renal,> 100 µM
same,TGI,RPMI-8226 leukemia,> 100 µM
same,TGI,M14 melanoma,> 100 µM
same,TGI,A549 NSCLC,> 100 µM
same,TGI,HCT-116 colon,> 100 µM
same,TGI,SW-620 colon,> 100 µM
same,TGI,UACC-62 melanoma,> 100 µM
same,TGI,SF-539 CNS,> 100 µM
same,TGI,HOP-62 NSCLC,> 100 µM
same,TGI,RXF 393 renal,> 100 µM
CC1=Nn2c(nnc2-c2ccc(N)cc2)NC(C)(C)C1,TGI,M19-MEL melanoma,> 100 µM
same,TGI,DMS 273 small cell lung,> 100 µM
same,TGI,TK-10 renal,> 100 µM
same,TGI,HL-60(TB) leukemia,> 100 µM
same,TGI,NCI-H460 lung,> 100 µM
same,TGI,786-0 renal,> 100 µM
same,TGI,HOP-92 NSCLC,> 100 µM
same,TGI,SK-MEL-5 melanoma,> 100 µM
same,TGI,MOLT-4 leukemia,> 100 µM
same,TGI,MALME-3M melanoma,> 100 µM
same,TGI,DMS 114 small cell lung,> 100 µM
same,TGI,EKVX NSCLC,> 100 µM
same,TGI,HOP-18 NSCLC,> 100 µM
same,TGI,OVCAR-3 ovarian,> 100 µM
same,TGI,U251 CNS,> 100 µM
same,TGI,OVCAR-5 ovarian,> 100 µM
same,TGI,KM12 colon,> 100 µM
same,TGI,SF-268 CNS,> 100 µM
same,TGI,SNB-78 CNS,> 100 µM
same,TGI,RXF-631 renal,> 100 µM
same,TGI,UACC-257 melanoma,> 100 µM
same,TGI,K-562 leukemia,> 100 µM
same,TGI,HCC-2998 colon,> 100 µM
same,TGI,SK-MEL-28 melanoma,> 100 µM
same,TGI,SF-295 CNS,> 100 µM
same,TGI,SK-MEL-2 melanoma,> 100 µM
same,TGI,NCI-H23 lung,> 100 µM
same,TGI,A498 renal,> 100 µM
same,TGI,XF 498 CNS,> 100 µM
same,TGI,CAKI-1 renal,> 100 µM
same,TGI,DLD-1 colon,> 100 µM
same,TGI,LOX IMVI melanoma,> 100 µM
same,TGI,LXFL 529 NSCLC,> 100 µM
same,TGI,CCRF-CEM leukemia,> 100 µM
same,TGI,OVCAR-4 ovarian,> 100 µM
same,TGI,SNB-19 CNS,> 100 µM
same,TGI,SK-OV-3 ovarian,> 100 µM
same,TGI,NCI-H522 lung,> 100 µM
same,TGI,NCI-H226 lung,> 100 µM
same,TGI,HCT-15 colon,> 100 µM
same,TGI,IGROV1 ovarian,> 100 µM
same,TGI,COLO 205 colon,> 100 µM
same,TGI,KM20L2 colon,> 100 µM
same,TGI,UO-31 renal,> 100 µM
same,TGI,HT29 colon,> 100 µM
same,TGI,ACHN renal,> 100 µM
same,TGI,RPMI-8226 leukemia,> 100 µM
same,TGI,M14 melanoma,> 100 µM
same,TGI,A549 NSCLC,> 100 µM
same,TGI,SW-620 colon,> 100 µM
same,TGI,UACC-62 melanoma,> 100 µM
same,TGI,SF-539 CNS,> 100 µM
same,TGI,HOP-62 NSCLC,> 100 µM
